Holding throughout (type): functional
Holding throughout (settings): P388, ip, route intraperitoneal

Experiment [1] has as its system Mus musculus. Put plainly: Evaluated for % increase in median survival rate against P388 Lymphocytic Leukemia at a dose of 400 mg/kg administered intraperitoneally.
In experiment [2] the test system is Mus musculus. Put plainly: Evaluated for % increase in median survival rate against P388 Lymphocytic Leukemia at a dose of 200 mg/kg administered intraperitoneally.
Experiment [3] has as its system Mus musculus. Put plainly: Evaluated for % increase in median survival rate against P388 Lymphocytic Leukemia at a dose of 100 mg/kg administered intraperitoneally.
Experiment [4] concerns Mus musculus. The experiment is described as follows: Evaluated for % increase in median survival rate against P388 Lymphocytic Leukemia at a dose of 50 mg/kg administered intraperitoneally.

Molecules are shown by their SMILES.

One may read the ILS as how much longer treated animals lived than controls. Lower therefore signals little gain in survival.

In experiment [1], `CCCCCCC(=O)OCCl` [HEPTANOIC ACID CHLOROMETHYL ESTER] came in with an ILS at 400 mg/kg of 109%. The compound further returned an ILS at 200 mg/kg in experiment [2] of 127%. In addition, the ILS at 100 mg/kg in experiment [3] came to 120%. Further, the ILS at 50 mg/kg in experiment [4] was 107%.
